Assay results taken from PubChem BioAssay (NCI).
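How tested: cells in 96-well plates exposed to compound for 48 hours at five concentrations. At the GI50, growth is halved. TGI marks complete inhibition of growth.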

How the values were obtained:
Experiment in all cases: NCI tumour cell line growth inhibition, 48 h
[1] = test system: PC-3 prostate
[2] = test system: HCT-15 colon
[3] = test system: SF-539 CNS
[4] = test system: BT-549 breast
[5] = test system: RPMI-8226 leukemia
[6] = test system: NCI-H226 lung
[7] = test system: HOP-62 NSCLC
[8] = test system: HS 578T breast
[9] = test system: ACHN renal
[10] = test system: A549 NSCLC
[11] = test system: U251 CNS
[12] = test system: HOP-92 NSCLC
[13] = test system: SW-620 colon
[14] = test system: CAKI-1 renal
[15] = test system: MDA-MB-435
[16] = test system: MCF7 breast
[17] = test system: UO-31 renal
[18] = test system: SF-295 CNS
[19] = test system: UACC-62 melanoma
[20] = test system: HL-60(TB) leukemia
[21] = test system: SK-MEL-28 melanoma
[22] = test system: RXF 393 renal
[23] = test system: OVCAR-3 ovarian
[24] = test system: SNB-19 CNS
[25] = test system: SR leukemia
[26] = test system: SK-MEL-2 melanoma
[27] = test system: SK-MEL-5 melanoma
[28] = test system: KM12 colon
[29] = test system: SK-OV-3 ovarian
[30] = test system: MALME-3M melanoma
[31] = test system: COLO 205 colon
[32] = test system: TK-10 renal
[33] = test system: HCC-2998 colon
[34] = test system: HT29 colon
[35] = test system: A498 renal
[36] = test system: MOLT-4 leukemia
[37] = test system: EKVX NSCLC
[38] = test system: MDA-MB-231 breast
[39] = test system: NCI-H460 lung
[40] = test system: SNB-75 CNS
[41] = test system: UACC-257 melanoma
[42] = test system: T-47D breast
[43] = test system: NCI-H23 lung
[44] = test system: IGROV1 ovarian
[45] = test system: K-562 leukemia
[46] = test system: OVCAR-5 ovarian
[47] = test system: SN12C renal
[48] = test system: NCI/ADR-RES ovarian
[49] = test system: OVCAR-4 ovarian
[50] = test system: 786-0 renal

CC(=O)OC[C@]12CC[C@@H](C(=O)/C=C/c3cccnc3)[C@@H]1[C@H]1CC[C@@H]3[C@@]4(C)CC[C@H](OC(C)=O)C(C)(C)[C@@H]4CC[C@@]3(C)[C@]1(C)CC2
GI50 [1]: 820 nM
TGI [1]: 4140 nM
GI50 [2]: 1500 nM
TGI [2]: 3340 nM
GI50 [3]: 1590 nM
TGI [3]: 3070 nM
GI50 [4]: 1460 nM
TGI [4]: 2870 nM
GI50 [5]: 839 nM
TGI [5]: 3640 nM
GI50 [6]: 1720 nM
TGI [6]: 3850 nM
GI50 [7]: 2210 nM
TGI [7]: 6370 nM
GI50 [8]: 2240 nM
TGI [8]: 6610 nM
GI50 [9]: 1610 nM
TGI [9]: 3020 nM
GI50 [10]: 1820 nM
TGI [10]: 4690 nM
GI50 [11]: 1600 nM
TGI [11]: 3350 nM
GI50 [12]: 1080 nM
TGI [12]: 2470 nM
GI50 [13]: 1470 nM
TGI [13]: 3420 nM
GI50 [14]: 1260 nM
TGI [14]: 2700 nM
GI50 [15]: 1410 nM
TGI [15]: 3180 nM
GI50 [16]: 1100 nM
TGI [16]: 2420 nM
GI50 [17]: 1370 nM
TGI [17]: 2670 nM
GI50 [18]: 1470 nM
TGI [18]: 3190 nM
GI50 [19]: 1670 nM
TGI [19]: 4080 nM
GI50 [20]: 450 nM
TGI [20]: 3290 nM
GI50 [21]: 1440 nM
TGI [21]: 2890 nM
GI50 [22]: 1620 nM
TGI [22]: 3050 nM
GI50 [23]: 1710 nM
TGI [23]: 3290 nM
GI50 [24]: 1890 nM
TGI [24]: 4640 nM
GI50 [25]: 512 nM
TGI [25]: > 100000 nM
GI50 [26]: 1800 nM
TGI [26]: 3780 nM
GI50 [27]: 1550 nM
TGI [27]: 2970 nM
GI50 [28]: 1690 nM
TGI [28]: 4130 nM
GI50 [29]: 3320 nM
TGI [29]: 19000 nM
GI50 [30]: 1380 nM
TGI [30]: 2880 nM
GI50 [31]: 1480 nM
TGI [31]: 3370 nM
GI50 [32]: 1850 nM
TGI [32]: 3630 nM
GI50 [33]: 1650 nM
TGI [33]: 3230 nM
GI50 [34]: 1870 nM
TGI [34]: 4740 nM
GI50 [35]: 1330 nM
TGI [35]: 2840 nM
GI50 [36]: 587 nM
TGI [36]: 4000 nM
GI50 [37]: 2180 nM
TGI [37]: 6990 nM
GI50 [38]: 1500 nM
TGI [38]: 3610 nM
GI50 [39]: 1310 nM
TGI [39]: 3010 nM
GI50 [40]: 1500 nM
TGI [40]: 5000 nM
GI50 [41]: 1900 nM
TGI [41]: 4680 nM
GI50 [42]: 1060 nM
TGI [42]: 3530 nM
GI50 [43]: 1860 nM
TGI [43]: 4120 nM
GI50 [44]: 1870 nM
TGI [44]: 4400 nM
GI50 [45]: 903 nM
TGI [45]: > 100000 nM
GI50 [46]: 1820 nM
TGI [46]: 4070 nM
GI50 [47]: 1590 nM
TGI [47]: 4350 nM
GI50 [48]: 1990 nM
TGI [48]: 4910 nM
GI50 [49]: 3010 nM
TGI [49]: > 100000 nM
GI50 [50]: 2420 nM
TGI [50]: 6710 nM
